Reference: the NIST ThermoML archive (doi:10.1016/j.fluid.2007.06.001)

Key:
[1] = excess molar enthalpy (molar enthalpy of mixing); xn = mol fraction of the nth substance listed; details: Liquid
[2] = Liquid

CCn1cc[n+](C)c1.O=S(=O)([N-]S(=O)(=O)C(F)(F)F)C(F)(F)F + CCO
[1], 323.15 K, 101.3 kPa
Details	excess molar enthalpy [kcal/mol]
x2 = 0.0529	0.0909
x2 = 0.1017	0.163
x2 = 0.1885	0.297
x2 = 0.3291	0.463
x2 = 0.5246	0.586
x2 = 0.7259	0.525
x2 = 0.8436	0.384
x2 = 0.9687	0.105

CCCCCC[n+]1ccn(C)c1.O=S(=O)([N-]S(=O)(=O)C(F)(F)F)C(F)(F)F + Cc1ccccc1
[1], 363.15 K, 101 kPa
Details	excess molar enthalpy [kcal/mol]
x2 = 0.0501	-0.0218
x2 = 0.1001	-0.0441
x2 = 0.1501	-0.0645
x2 = 0.2002	-0.0866
x2 = 0.3002	-0.125
x2 = 0.4503	-0.169
x2 = 0.6003	-0.183
x2 = 0.7002	-0.164
x2 = 0.8002	-0.116
x2 = 0.8501	-0.0868
x2 = 0.9001	-0.0571
x2 = 0.9501	-0.0288

CCCCCC[n+]1ccn(C)c1.O=S(=O)([N-]S(=O)(=O)C(F)(F)F)C(F)(F)F + CCCCCC
[1], 363.15 K, 101 kPa
Details	excess molar enthalpy [kcal/mol]
x2 = 0.02	0.0124
x2 = 0.0501	0.035
x2 = 0.1002	0.073
x2 = 0.1503	0.104
x2 = 0.2003	0.123
x2 = 0.3003	0.126
x2 = 0.4004	0.107
x2 = 0.5004	0.0878
x2 = 0.6004	0.0711
x2 = 0.7003	0.0511
x2 = 0.8002	0.0328
x2 = 0.9001	0.0157
x2 = 0.9501	0.00801

CCCCCC[n+]1ccn(C)c1.O=S(=O)([N-]S(=O)(=O)C(F)(F)F)C(F)(F)F + c1ccccc1
[1], 363.15 K, 101 kPa
Details	excess molar enthalpy [kcal/mol]
x2 = 0.0854	-0.0378
x2 = 0.1608	-0.0698
x2 = 0.2279	-0.0993
x2 = 0.288	-0.12
x2 = 0.3421	-0.142
x2 = 0.3912	-0.163
x2 = 0.4765	-0.191
x2 = 0.5482	-0.21
x2 = 0.6094	-0.214
x2 = 0.7082	-0.206
x2 = 0.7845	-0.183
x2 = 0.8452	-0.138
x2 = 0.9161	-0.0683
x2 = 0.9704	-0.0212

CCCCCC[n+]1ccn(C)c1.O=S(=O)([N-]S(=O)(=O)C(F)(F)F)C(F)(F)F + CCO
[1], 353.15 K, 101 kPa
Details	excess molar enthalpy [kcal/mol]
x2 = 0.0506	0.0647
x2 = 0.1012	0.132
x2 = 0.1517	0.202
x2 = 0.2022	0.269
x2 = 0.4534	0.51
x2 = 0.6033	0.551
x2 = 0.9012	0.257
x2 = 0.9506	0.138

CCCCCC[n+]1ccn(C)c1.O=S(=O)([N-]S(=O)(=O)C(F)(F)F)C(F)(F)F + CC(C)=O
[1], 353.15 K, 101 kPa
Details	excess molar enthalpy [kcal/mol]
x2 = 0.02	-0.0107
x2 = 0.0499	-0.0253
x2 = 0.0999	-0.0512
x2 = 0.1498	-0.0795
x2 = 0.1998	-0.106
x2 = 0.2997	-0.158
x2 = 0.3996	-0.202
x2 = 0.4996	-0.239
x2 = 0.5996	-0.26
x2 = 0.6997	-0.268
x2 = 0.7998	-0.25
x2 = 0.8999	-0.182
x2 = 0.9499	-0.117

CCCCCCCCC [nonane]
Details	vapor or sublimation pressure [kPa]
[2], 353.15 K	9.65

C=CCCCCCC [oct-1-ene]
Details	vapor or sublimation pressure [kPa]
[2], 363.15 K	38.51

CCC(=O)CC [pentan-3-one] + CCCCCC[n+]1ccn(C)c1.O=S(=O)([N-]S(=O)(=O)C(F)(F)F)C(F)(F)F
[1], 353.15 K, 101 kPa
Details	excess molar enthalpy [kcal/mol]
x1 = 0.0503	-0.0247
x1 = 0.1005	-0.0527
x1 = 0.1507	-0.0794
x1 = 0.2009	-0.107
x1 = 0.3011	-0.156
x1 = 0.4013	-0.198
x1 = 0.5013	-0.24
x1 = 0.6013	-0.266
x1 = 0.7011	-0.276
x1 = 0.8009	-0.249
x1 = 0.9005	-0.177
x1 = 0.9503	-0.109

CCn1cc[n+](C)c1.O=S(=O)([N-]S(=O)(=O)C(F)(F)F)C(F)(F)F + CCCO
[1], 323.15 K, 101.3 kPa
Details	excess molar enthalpy [kcal/mol]
x2 = 0.0418	0.0767
x2 = 0.0812	0.15
x2 = 0.1536	0.27
x2 = 0.277	0.451
x2 = 0.4629	0.626
x2 = 0.6741	0.623
x2 = 0.8082	0.488
x2 = 0.9602	0.151

C=CCCCCCC [oct-1-ene] + CCCCCC[n+]1ccn(C)c1.O=S(=O)([N-]S(=O)(=O)C(F)(F)F)C(F)(F)F
[1], 413.15 K, 101 kPa
Details	excess molar enthalpy [kcal/mol]
x1 = 0.0504	0.0404
x1 = 0.0982	0.0729
x1 = 0.1437	0.102
x1 = 0.1869	0.131
x1 = 0.2281	0.142
x1 = 0.2675	0.141
x1 = 0.3409	0.13
x1 = 0.4082	0.116
x1 = 0.47	0.103
x1 = 0.5797	0.0815
x1 = 0.6742	0.0617
x1 = 0.7563	0.0472
x1 = 0.8613	0.0272
